Experiments:
Format in all cases: biochemical
[1] = molecular target: TYK2 (Homo sapiens (Human), UniProt P29597); test: JAK Caliper Enzyme Assay at 1 mM ATP, TYK2
Outline: (§1)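 Inhibition is measured as reduced phosphorylation of a synthetic peptide by the recombinant human kinase domain at 1 mM ATP. Conditions give 20–30% conversion at room temperature before EDTA quench, and on-chip separation of labelled substrate and product yields percent conversion for dose–response plotting.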

[2] = molecular target: JAK2 (Homo sapiens (Human), UniProt O60674); test: JAK Caliper Enzyme Assay at 1 mM ATP, JAK2
JAK2, sequence (O60674 849-1124): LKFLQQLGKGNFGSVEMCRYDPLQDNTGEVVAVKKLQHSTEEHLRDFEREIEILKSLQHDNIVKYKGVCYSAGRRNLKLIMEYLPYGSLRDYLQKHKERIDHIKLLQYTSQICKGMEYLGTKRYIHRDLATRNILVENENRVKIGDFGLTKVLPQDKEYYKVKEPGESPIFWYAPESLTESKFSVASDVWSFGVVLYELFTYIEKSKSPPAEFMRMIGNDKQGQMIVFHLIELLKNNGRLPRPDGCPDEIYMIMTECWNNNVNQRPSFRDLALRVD
Outline: as §1

[3] = molecular target: JAK3 (Homo sapiens (Human), UniProt P52333); test: JAK Caliper Enzyme Assay at 1 mM ATP, JAK3
JAK3, sequence (P52333 822-1111): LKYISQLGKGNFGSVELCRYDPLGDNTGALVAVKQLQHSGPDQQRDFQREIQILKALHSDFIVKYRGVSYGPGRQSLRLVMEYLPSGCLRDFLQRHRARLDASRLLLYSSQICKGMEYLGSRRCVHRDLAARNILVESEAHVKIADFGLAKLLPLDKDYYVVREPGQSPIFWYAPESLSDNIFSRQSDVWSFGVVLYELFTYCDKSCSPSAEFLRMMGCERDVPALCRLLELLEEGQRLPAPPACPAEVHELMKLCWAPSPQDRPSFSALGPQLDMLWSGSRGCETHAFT
Outline: (§2)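 Recombinant human kinase domains phosphorylate a fluorescent synthetic peptide at 1 mM ATP, room temperature, with enzyme and time tuned for 20-30% conversion; EDTA-stopped. Product/substrate separated by microfluidic mobility shift; percent effect versus DMSO and positive controls fitted to IC50 (nM).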

[4] = molecular target: JAK1 (Homo sapiens (Human), UniProt P23458); test: JAK Caliper Enzyme Assay at 1 mM ATP, JAK1
JAK1, sequence (P23458 875-1153): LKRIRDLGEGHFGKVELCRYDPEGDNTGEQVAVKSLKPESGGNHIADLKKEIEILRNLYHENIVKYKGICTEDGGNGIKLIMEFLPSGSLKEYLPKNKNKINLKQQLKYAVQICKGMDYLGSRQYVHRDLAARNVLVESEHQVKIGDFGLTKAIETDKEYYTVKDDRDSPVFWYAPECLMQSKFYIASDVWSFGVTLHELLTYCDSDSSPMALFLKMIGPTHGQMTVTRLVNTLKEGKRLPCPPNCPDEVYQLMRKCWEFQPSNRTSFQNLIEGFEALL
Outline: as §2

TYK2, sequence (P29597 897-1176): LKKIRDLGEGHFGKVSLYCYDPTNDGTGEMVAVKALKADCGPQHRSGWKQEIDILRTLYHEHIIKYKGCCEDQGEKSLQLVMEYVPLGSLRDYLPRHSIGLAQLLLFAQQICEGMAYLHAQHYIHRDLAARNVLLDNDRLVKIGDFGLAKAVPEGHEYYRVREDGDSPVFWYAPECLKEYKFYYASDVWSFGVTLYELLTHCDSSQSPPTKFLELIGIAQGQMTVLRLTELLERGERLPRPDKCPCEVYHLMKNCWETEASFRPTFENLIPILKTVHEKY

Structure (SMILES)	IC50 [1]	IC50 [2]	IC50 [3]	IC50 [4]
CNS(=O)(=O)N1CC(CC#N)(n2ccc(-c3nc(-c4cnn(C)c4)cc4ncccc34)n2)C1 [Example 109, 3-(cyanomethyl)-N-methyl-3-{3-[7-(1-methyl-1H-pyrazol-4-yl)-1,6-naphthyridin-5-yl]-1H-pyrazol-1-yl}azetidine-1-sulfonamide]	0.068 µM	0.378 µM	> 10 µM	2.37 µM
CO[C@H]1C[C@@](CC#N)(n2ccc(-c3nc(-c4cnn(C)c4)cc4ncccc34)n2)C1 [Example 110, (cis-3-methoxy-1-{3-[7-(1-methyl-1H-pyrazol-4-yl)-1,6-naphthyridin-5-yl]-1H-pyrazol-1-yl}cyclobutyl)acetonitrile]	0.061 µM	0.558 µM	> 10 µM	4.11 µM
CN(C)CCn1cc(-c2cc3ncccc3c(-c3ccn([C@]4(CC#N)C[C@H](C#N)C4)n3)n2)cn1 [Example 114, cis-3-(cyanomethyl)-3-[3-(7-{1-[2-(dimethylamino)ethyl]-1H-pyrazol-4-yl}-1,6-naphthyridin-5-yl)-1H-pyrazol-1-yl]cyclobutanecarbonitrile]	0.046 µM	0.041 µM	1.17 µM	0.404 µM
N#CCC1(n2ccc(-c3nc(-c4cnn(C5CNC5)c4)cc4ncccc34)n2)CN(CC(F)(F)F)C1 [Example 115, [3-(3-{7-[1-(azetidin-3-yl)-1H-pyrazol-4-yl]-1,6-naphthyridin-5-yl}-1H-pyrazol-1-yl)-1-(2,2,2-trifluoroethyl)azetidin-3-yl]acetonitrile]	0.12 µM	0.327 µM	> 10 µM	7.06 µM
CN1CCC(n2cc(-c3cc4ncccc4c(-c4ccn(C5(CC#N)CN(CC(F)(F)F)C5)n4)n3)cn2)CC1 [Example 117, [3-(3-{7-[1-(1-methylpiperidin-4-yl)-1H-pyrazol-4-yl]-1,6-naphthyridin-5-yl}-1H-pyrazol-1-yl)-1-(2,2,2-trifluoroethyl)azetidin-3-yl]acetonitrile]	0.088 µM	0.064 µM	6.96 µM	1.06 µM
CS(=O)(=O)N1CC(CC#N)(n2ccc(-c3nc(-c4cnn(C(F)(F)F)c4)cc4ncccc34)n2)C1 [Example 118, [1-(methylsulfonyl)-3-(3-{7-[1-(trifluoromethyl)-1H-pyrazol-4-yl]-1,6-naphthyridin-5-yl}-1H-pyrazol-1-yl)azetidin-3-yl]acetonitrile]	0.843 µM	4.17 µM	> 10 µM	9.06 µM
CO[C@H]1C[C@@](CC#N)(n2ccc(-c3nc(-c4cnn(C5COC5)c4)cc4ncccc34)n2)C1 [Example 122, [cis-3-methoxy-1-(3-{7-[1-(oxetan-3-yl)-1H-pyrazol-4-yl]-1,6-naphthyridin-5-yl}-1H-pyrazol-1-yl)cyclobutyl]acetonitrile]	0.11 µM	0.391 µM	> 10 µM	6.66 µM
CO[C@H]1C[C@@](CC#N)(n2ccc(-c3nc(-c4cnn(CCO)c4)cc4ncccc34)n2)C1 [Example 128, [cis-1-(3-{7-[1-(2-hydroxyethyl)-1H-pyrazol-4-yl]-1,6-naphthyridin-5-yl}-1H-pyrazol-1-yl)-3-methoxycyclobutyl]acetonitrile]	0.115 µM	0.62 µM	> 10 µM	3.53 µM
CO[C@H]1C[C@](CC#N)(n2ccc(-c3nc(-c4cnn(CCO)c4)cc4ncccc34)n2)C1 [Example 129, [trans-1-(3-{7-[1-(2-hydroxyethyl)-1H-pyrazol-4-yl]-1,6-naphthyridin-5-yl}-1H-pyrazol-1-yl)-3-methoxycyclobutyl]acetonitrile]	0.133 µM	1.23 µM	> 10 µM	5.92 µM
Cn1ncc(-c2cc3ncccc3c(-c3ccn(C4(CC#N)CN(S(C)(=O)=O)C4)n3)n2)c1C(N)=O [Example 134, 4-(5-{1-[3-(cyanomethyl)-1-(methylsulfonyl)azetidin-3-yl]-1H-pyrazol-3-yl}-1,6-naphthyridin-7-yl)-1-methyl-1H-pyrazole-5-carboxamide]	0.685 µM	> 10 µM	> 10 µM	> 10 µM

Stronger by IC50 [1], values ahead:

IC50 [1]	IC50 [2]	IC50 [3]	IC50 [4]	Structure (SMILES)
0.024 µM	0.243 µM	> 10 µM	1.01 µM	Cn1cc(-c2cc3ncccc3c(-c3ccn(C4(CC#N)CN(S(=O)(=O)C5CC5)C4)n3)n2)cn1 [Example 107, [1-(cyclopropylsulfonyl)-3-{3-[7-(1-methyl-1H-pyrazol-4-yl)-1,6-naphthyridin-5-yl]-1H-pyrazol-1-yl}azetidin-3-yl]acetonitrile]
0.016 µM	0.05 µM	1.59 µM	0.311 µM	Cn1cc(-c2cc3ncccc3c(-c3ccn(C4(CC#N)CN(S(N)(=O)=O)C4)n3)n2)cn1 [Example 108, 3-(cyanomethyl)-3-{3-[7-(1-methyl-1H-pyrazol-4-yl)-1,6-naphthyridin-5-yl]-1H-pyrazol-1-yl}azetidine-1-sulfonamide]
0.027 µM	0.139 µM	9.05 µM	0.458 µM	CCn1cc(-c2cc3ncccc3c(-c3ccn(C4(CC#N)CN(CC(F)(F)F)C4)n3)n2)cn1 [Example 111, [3-{3-[7-(1-ethyl-1H-pyrazol-4-yl)-1,6-naphthyridin-5-yl]-1H-pyrazol-1-yl}-1-(2,2,2-trifluoroethyl)azetidin-3-yl]acetonitrile]
0.041 µM	0.054 µM	4.42 µM	1.04 µM	N#CCC1(n2ccc(-c3nc(-c4cnn(C5CCNCC5)c4)cc4ncccc34)n2)CN(CC(F)(F)F)C1 [Example 116, [3-(3-{7-[1-(piperidin-4-yl)-1H-pyrazol-4-yl]-1,6-naphthyridin-5-yl}-1H-pyrazol-1-yl)-1-(2,2,2-trifluoroethyl)azetidin-3-yl]acetonitrile]
0.029 µM	0.082 µM	8.38 µM	0.976 µM	N#CCC1(n2ccc(-c3nc(-c4cnn(C5COC5)c4)cc4ncccc34)n2)CN(CC(F)(F)F)C1 [Example 119, [3-(3-{7-[1-(oxetan-3-yl)-1H-pyrazol-4-yl]-1,6-naphthyridin-5-yl}-1H-pyrazol-1-yl)-1-(2,2,2-trifluoroethyl)azetidin-3-yl]acetonitrile]
0.02 µM	0.101 µM	9.59 µM	1.75 µM	CS(=O)(=O)N1CC(CC#N)(n2ccc(-c3nc(-c4cnn(C5COC5)c4)cc4ncccc34)n2)C1 [Example 121, [1-(methylsulfonyl)-3-(3-{7-[1-(oxetan-3-yl)-1H-pyrazol-4-yl]-1,6-naphthyridin-5-yl}-1H-pyrazol-1-yl)azetidin-3-yl]acetonitrile]
0.021 µM	0.054 µM	9.66 µM	0.744 µM	CS(=O)(=O)N1CC(CC#N)(n2ccc(-c3nc(-c4cnn([C@H]5CCOC5)c4)cc4ncccc34)n2)C1 [Example 123, {1-(methylsulfonyl)-3-[3-(7-{1-[(3S)-tetrahydrofuran-3-yl]-1H-pyrazol-4-yl}-1,6-naphthyridin-5-yl)-1H-pyrazol-1-yl]azetidin-3-yl}acetonitrile]
0.027 µM	0.068 µM	9.88 µM	0.715 µM	CS(=O)(=O)N1CC(CC#N)(n2ccc(-c3nc(-c4cnn([C@@H]5CCOC5)c4)cc4ncccc34)n2)C1 [Example 124, {1-(methylsulfonyl)-3-[3-(7-{1-[(3R)-tetrahydrofuran-3-yl]-1H-pyrazol-4-yl}-1,6-naphthyridin-5-yl)-1H-pyrazol-1-yl]azetidin-3-yl}acetonitrile]
0.033 µM	0.162 µM	> 10 µM	0.965 µM	CS(=O)(=O)N1CC(CC#N)(n2ccc(-c3nc(-c4cnn(CCO)c4)cc4ncccc34)n2)C1 [Example 125, [3-(3-{7-[1-(2-hydroxyethyl)-1H-pyrazol-4-yl]-1,6-naphthyridin-5-yl}-1H-pyrazol-1-yl)-1-(methylsulfonyl)azetidin-3-yl]acetonitrile]
0.041 µM	0.119 µM	> 10 µM	0.583 µM	N#CC[C@]1(n2ccc(-c3nc(-c4cnn(CCO)c4)cc4ncccc34)n2)C[C@H](C#N)C1 [Example 126, trans-3-(cyanomethyl)-3-(3-{7-[1-(2-hydroxyethyl)-1H-pyrazol-4-yl]-1,6-naphthyridin-5-yl}-1H-pyrazol-1-yl)cyclobutanecarbonitrile]
0.017 µM	0.02 µM	1.05 µM	0.064 µM	N#CC[C@]1(n2ccc(-c3nc(-c4cnn(CCO)c4)cc4ncccc34)n2)C[C@@H](C#N)C1 [Example 127, cis-3-(cyanomethyl)-3-(3-{7-[1-(2-hydroxyethyl)-1H-pyrazol-4-yl]-1,6-naphthyridin-5-yl}-1H-pyrazol-1-yl)cyclobutanecarbonitrile]
0.032 µM	0.063 µM	9.52 µM	0.232 µM	CS(=O)(=O)N1CC(CC#N)(n2ccc(-c3nc(-c4cnn(C(CO)CCl)c4)cc4ncccc34)n2)C1 (centres unmarked) [Example 130, [3-(3-{7-[1-(1-chloro-3-hydroxypropan-2-yl)-1H-pyrazol-4-yl]-1,6-naphthyridin-5-yl}-1H-pyrazol-1-yl)-1-(methylsulfonyl)azetidin-3-yl]acetonitrile]
0.022 µM	0.07 µM	9.12 µM	0.619 µM	CS(=O)(=O)N1CC(CC#N)(n2ccc(-c3nc(-c4cnn(CC5COC5)c4)cc4ncccc34)n2)C1 [Example 132, [1-(methylsulfonyl)-3-(3-{7-[1-(oxetan-3-ylmethyl)-1H-pyrazol-4-yl]-1,6-naphthyridin-5-yl}-1H-pyrazol-1-yl)azetidin-3-yl]acetonitrile]

Reference: US11254668B2, “Pyrazolo[1,5-A]pyrazin-4-yl and related derivatives” (Pfizer Inc., priority 2017, dated 2022)
